Reference: patent US11220548B2, “Treatment of C1013G/CXCR4-associated Waldenstrom's macroglobulinemia with an anti-CXCR4 antibody” (BRISTOL-MYERS SQUIBB COMPANY, priority 2013, dated 2022)

Key:
[1] = system: WM cells; conditions: cited from earlier work
[2] = system: WM cells; conditions: cited from earlier work; remark: listed apart in the source
[3] = system: C1013G/CXCR4-WM cell lines (BCWM1; MWCL1); assay: Cytotoxicity (MTT) of anti-WM agents, 48 h exposure; assay type: cell-based, human; conditions: vs control vector-infected cells
Source text: FIGS. 13A and 13B show GSEA enrichment plots of multiple drug resistance and response to drug signature genes in C1013G/CXCR4-mutated cells and control vector-infected cells (control cells), respectively. The plotted curves show the enrichment score and reflect the degree to which each gene (vertical lines) is represented at the top or bottom of the ranked gene list. The heat map indicates the relative abundance (left to right) of the genes specifically enriched in the mutated cells as compared with the control cells. Gene sets were considered enriched with a FDR always <0.25. Normalized enrichments score (NES) and FDR are shown per each gene set analyzed. FIGS. 13C-13G show the effects on C1013G/CXCR4-WM cell lines (BCWM1; MWCL1) or control vector-infected cells (control) exposed to everolimus, ibrutinib, idelalisib, bortezomib, and carfilzomib for 48 h.
Everolimus, idelalisib, ibrutinib, bortezomib, and carfilzomib were purchased from Selleck Chemicals (Houston, Tex.). Drugs were dissolved in dimethylsulfoxide and subsequently diluted in cell culture medium (10% fetal bovine serum) immediately before use.

[4] = system: BCWM.1-mCherry+ cells; assay: In vivo homing and tumor progression of wild-type WM cells; set-up: species or system SCID/Bg mice; conditions: human IgM ELISA at end of study; P<0.05
Protocol: Serum was collected at the end of the study. […] Cell toxicity was performed by MTT. […] Bars indicate standard deviation.
Human serum IgM levels were determined by using a human IgM ELISA assay (ZeptoMetrix, Buffalo, N.Y.), according to the manufacturer's protocol.
SCID/Bg mice (n=5/group) were injected with BCWM.1 infected with either precision LentiORF/CXCR4/GFP (CXCR4^+)- or empty vector probe/RFP (control)-infected BCWM.1 cells. After three weeks, mice were euthanized and organs harvested. Hematoxylin-eosin staining, immunohistochemistry for human-CD20 and -CXCR4 were performed on explanted organs. Independent experiments were conducted to evaluate differences in survival (SCID/Bg mice, n=7/group). Similar studies were conducted using […]/CXCR4-mutated cells and control vector-infected cells (control cells). In vivo homing studies were performed using BCWM.1-mCherry^+ cells: cells were injected intravenously into […] mice and treated with either BMS-936564 or control antibody (10 mg/kg, intraperitoneally; 3-4 times per week for 3 weeks). The ability of BMS-936564 to modulate WM homing to BM, spleen and lymph nodes was evaluated ex vivo at the third week on explanted tissues, by using a fluorescence microscope (Nikon Eclipse 80i, Melville, N.Y.) (Roccaro et al., 2013).
The anti-WM activity of BMS-936564 was also tested in vivo using wild-type WM cells. BCWM.1-mCherry^+ cells were injected intravenously into SCID/Bg mice and treated mice with either BMS-936564 or control antibody.
As CXCR4 inhibition is thought to induce stem cell and tumor cell mobilization, it was hypothesized that BMS-936564 may also induce mobilization of WM cells leading to increased chemosensitivity to anti-WM agents. Accordingly, the effect of BMS-936564 in modulating tumor progression and WM cell dissemination to distant BM niches in vivo was evaluated as monotherapy or in combination with bortezomib.

Compound	migration of WM cells [1]	adhesion of WM cells to fibronectin, stromal cells, and endothelial cells [2]	sensitivity of C1013G/CXCR4-mutated WM cells compared with unmutated control cells [3]	serum IgM levels [4]
c1cc(CN2CCCNCCNCCCNCC2)ccc1CN1CCCNCCNCCCNCC1 [AMD3100, plerixafor]	significantly inhibit	significantly inhibit	–	–
CC(C)C[C@H](NC(=O)[C@H](Cc1ccccc1)NC(=O)c1cnccn1)B(O)O [bortezomib, reference compound]	–	–	equally sensitive	significantly reduced
CC(C)C[C@H](NC(=O)[C@H](CCc1ccccc1)NC(=O)CN1CCOCC1)C(=O)N[C@@H](Cc1ccccc1)C(=O)N[C@@H](CC(C)C)C(=O)[C@@]1(C)CO1 [carfilzomib]	–	–	equally sensitive	–
CO[C@H]1C[C@@H]2CC[C@@H](C)[C@@](O)(O2)C(=O)C(=O)N2CCCC[C@H]2C(=O)O[C@H]([C@H](C)C[C@@H]2CC[C@@H](OCCO)[C@H](OC)C2)CC(=O)[C@H](C)/C=C(\C)[C@@H](O)[C@@H](OC)C(=O)[C@H](C)C[C@H](C)/C=C/C=C/C=C/1C [everolimus]	–	–	resistance	–
CC[C@H](Nc1ncnc2[nH]cnc12)c1nc2cccc(F)c2c(=O)n1-c1ccccc1 [idelalisib]	–	–	resistance	–
